In ChEMBL document CHEMBL1221401, “Antiproliferative compounds from Pongamiopsis pervilleana from the Madagascar Dry Forest” (J Nat Prod, 2010):
pIC50: −log10 of the molar value.

How the values were obtained:
Type in all cases: functional, cell-based
A2780 = experiment: Antiproliferative activity against human A2780 cells after 96 hrs by CellTiter-Glo luminescent cell viability assay; settings: A2780, 96 h
BT-549 = experiment: Antiproliferative activity against human BT549 cells after 96 hrs by CellTiter-Glo luminescent cell viability assay; settings: BT-549, 96 h
DU-145 = experiment: Antiproliferative activity against human DU145 cells after 96 hrs by CellTiter-Glo luminescent cell viability assay; settings: DU-145, 96 h
NCI-H460 = experiment: Antiproliferative activity against human NCI-H460 cells after 96 hrs by CellTiter-Glo luminescent cell viability assay; settings: NCI-H460, 96 h
HCC 2998 = experiment: Antiproliferative activity against human HCC2998 cells after 96 hrs by CellTiter-Glo luminescent cell viability assay; settings: HCC 2998, 96 h

Row | pIC50 (A2780) | Compound | pIC50 (BT-549) | pIC50 (DU-145) | pIC50 (NCI-H460) | pIC50 (HCC 2998)
1 | < 4.26 | C=C(CO)[C@H]1Cc2cc3c(cc2O1)OC[C@H]1c2cc4c(cc2O[C@@H]31)OCO4 | – | – | – | –
2 | 4.58 | C=C(C)[C@H]1Cc2cc3c(cc2O1)OC[C@H]1c2cc4c(cc2O[C@@H]31)OCO4 [EMOROIDOCARPAN] | – | – | – | –
3 | 5.02 | COc1c(-c2ccc3c(c2)OCO3)c(=O)oc2c3c(ccc12)OC(C)(C)C=C3 [PONGAVILLEANINE] | – | – | – | –

Row | Compound | pIC50 (A2780) | pIC50 (BT-549) | pIC50 (DU-145) | pIC50 (NCI-H460) | pIC50 (HCC 2998)
4 | C=C(C)[C@H]1Cc2c(ccc3c2O[C@@H]2COc4cc(OC)c(OC)cc4[C@]2(O)C3=O)O1 [ROTENOLONE] | 6.02 | 5.80 | 5.57 | 5.70 | 5.54
